In general, Kb refers to the affinity of an antagonist, worked out from how it opposes an agonist.

In this assay the target is T1, human OX1 receptor (Homo sapiens, UniProt O43613).
T1 sequence (O43613 1-425): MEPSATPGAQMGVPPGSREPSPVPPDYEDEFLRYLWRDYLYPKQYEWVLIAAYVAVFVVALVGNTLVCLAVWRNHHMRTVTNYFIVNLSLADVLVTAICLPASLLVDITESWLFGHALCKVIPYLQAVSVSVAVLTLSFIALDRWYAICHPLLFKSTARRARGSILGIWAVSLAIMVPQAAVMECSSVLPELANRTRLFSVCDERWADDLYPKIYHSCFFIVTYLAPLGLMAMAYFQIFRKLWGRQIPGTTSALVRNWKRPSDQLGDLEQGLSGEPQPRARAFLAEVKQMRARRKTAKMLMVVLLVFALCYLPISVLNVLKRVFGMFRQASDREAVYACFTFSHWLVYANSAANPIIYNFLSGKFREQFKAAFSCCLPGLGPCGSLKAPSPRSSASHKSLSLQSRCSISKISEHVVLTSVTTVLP
Nature of the assay: FLIPR measurement of intracellular calcium, antagonistic activity at OX1. To be noted: pKb OX1, CHO cells with human recombinant OX1, activated with orexin-A 3 nM; 1 nM-1 μM range; modified Cheng Prusoff.
Method: Thus the plate was loaded with the calcium dye (Fluo-4NW/probenecid in HBSS, Hepes 20 mM, pH 7,4; Invitrogen) at 37° C. for 60 min. Afterward the temperature was equilibrated at 22° C. for 15 min and the [Ca2+]i measured directly on the plate by using a fluorescent plate reader (CeliLux Perkin Elmer).
After 5 min CHO cells were activated with orexin-A, 3 nM while HEK-293 cells were activated with orexin-B, 10 nM.
The antagonistic activity has been expressed as pKb (co-logarithm of the apparent dissociation constant calculated by using the modified Cheng Prusoff equation).
In the case of `Cc1ccc(-n2nccn2)c(C(=O)N2CCC3(CC3)C[C@H]2CNc2ccc(C(F)(F)F)cn2)c1` [Compound 26, (S)-(5-methyl-2-(2H-1,2,3-triazol-2-yl)phenyl)(5-(((5-(trifluoromethyl)pyridin-2-yl)amino)methyl)-6-azaspiro[2.5]octan-6-yl)methanone], the antagonist equilibrium constant (Kb) was 25.1 nM.

`Cc1cnc(NC[C@@H]2CC3(CCN2C(=O)c2nc(C)sc2-c2ccccc2)CC3)nc1` [Compound 23, (S)-(2-methyl-5-phenylthiazol-4-yl)(5-(((5-methylpyrimidin-2-yl)amino)methyl)-6-azaspiro[2.5]octan-6-yl)methanone]: the Kb is 50.1 nM.

Regarding `Cc1nc(C(=O)N2CCC3(CC3)CC2CNc2ccc(Cl)cn2)c(-c2ccc(F)cc2)s1` (racemic) [Compound 10, (±) (5-((5-chloropyridin-2-ylamino)methyl)-6-azaspiro[2.5]octan-6-yl)(5-(4-fluorophenyl)-2-methylthiazol-4-yl)methanone], the antagonist equilibrium constant (Kb) was 39.8 nM.

`Cc1ccc(-n2nccn2)c(C(=O)N2CCC3(CC3)CC2CNc2ccc(Cl)cn2)c1` (racemic) [Compound 11, (±)(5-((5-chloropyridin-2-ylamino)methyl)-6-azaspiro[2.5]octan-6-yl)(5-methyl-2-(2H-1,2,3-triazol-2-yl)phenyl)methanone]: the Kb is 31.6 nM.

With `Cc1nc(C(=O)N2CCC3(CCCC3)CC2CNc2ccc(Cl)cn2)c(-c2ccccc2)s1` (racemic) [Compound 55, (±)(7-(((5-chloropyridin-2-yl)amino)methyl)-8-azaspiro[4.5]decan-8-yl)(2-methyl-5-phenylthiazol-4-yl)methanone], the Kb was 39.8 nM.

With `O=C(c1c(F)cccc1-n1nccn1)N1CCC2(CC2)C[C@H]1CNc1ccc(Cl)cn1` [Compound 31, (S)-(5-(((5-chloropyridin-2-yl)amino)methyl)-6-azaspiro[2.5]octan-6-yl)(2-fluoro-6-(2H-1,2,3-triazol-2-yl)phenyl)methanone], the Kb was 15.8 nM.

In the case of `Cc1nc(C(=O)N2CCC3(CC3)C[C@H]2CNc2ccc(F)cn2)c(-c2ccccc2)s1` [Compound 16, (S)-(5-(((5-fluoropyridin-2-yl)amino)methyl)-6-azaspiro[2.5]octan-6-yl)(2-methyl-5-phenylthiazol-4-yl)methanone], the antagonist dissociation constant (Kb) was 63.1 nM.

Take `Cc1ccc(-c2ncccn2)c(C(=O)N2CCC3(CC3)C[C@H]2CNc2ccc(C(F)(F)F)cn2)c1` [Compound 27, (S)-(5-methyl-2-(pyrimidin-2-yl)phenyl)(5-(((5-(trifluoromethyl)pyridin-2-yl)amino)methyl)-6-azaspiro[2.5]octan-6-yl)methanone]: the Kb is 12.6 nM.

Turning to `Cc1ccc(-c2ncccn2)c(C(=O)N2CCC3(CC3)C[C@H]2CNc2cccc(Cl)n2)c1` [Compound 41, (S)-(5-(((6-chloropyridin-2-yl)amino)methyl)-6-azaspiro[2.5]octan-6-yl)(5-methyl-2-(pyrimidin-2-yl)phenyl)methanone], the antagonist equilibrium constant (Kb) was 63.1 nM.

As to `O=C(c1c(F)cccc1-c1ncccn1)N1CCC2(CC2)C[C@H]1CNc1ccc(Cl)cn1` [Compound 45, (S)-(5-(((5-chloropyridin-2-yl)amino)methyl)-6-azaspiro[2.5]octan-6-yl)(2-fluoro-6-(pyrimidin-2-yl)phenyl)methanone], the Kb is 10 nM.

As for `Cc1nc(C(=O)N2CCC3(CC3)CC2CNc2ccc(Cl)cn2)c(-c2ccccc2)s1` (racemic) [Compound 4, (±) (5-((5-chloropyridin-2-ylamino)methyl)-6-azaspiro[2.5]octan-6-yl)(2-methyl-5-phenylthiazol-4-yl)methanone], the Kb was 25.1 nM.

As to `Cc1ccc(-n2nccn2)c(C(=O)N2CCC3(CC3)C[C@H]2CNc2cccc(C(F)(F)F)n2)c1` [Compound 20, (S)-(5-methyl-2-(2H-1,2,3-triazol-2-yl)phenyl)(5-(((6-(trifluoromethyl)pyridin-2-yl)amino)methyl)-6-azaspiro[2.5]octan-6-yl)methanone], the antagonist dissociation constant (Kb) is 50.1 nM.

In the case of `Cc1cccc(NCC2CC3(CCN2C(=O)c2nc(C)sc2-c2ccccc2)CC3)n1` (single isomer, unassigned) [Compound 3, (2-methyl-5-phenylthiazol-4-yl)(5-((6-methylpyridin-2-ylamino)methyl)-6-azaspiro[2.5]octan-6-yl)methanone], the Kb was 39.8 nM.

On to `Cc1nc(C(=O)N2CCC3(CC3)C[C@H]2CNc2nc(F)cc(F)n2)c(-c2ccccc2)s1` [Compound 24, (S)-(5-(((4,6-difluoropyrimidin-2-yl)amino)methyl)-6-azaspiro[2.5]octan-6-yl)(2-methyl-5-phenylthiazol-4-yl)methanone], for which the Kb is 100 nM.

Regarding `O=C(c1c(F)cccc1-c1ccccn1)N1CCC2(CC2)C[C@H]1CNc1ccc(Cl)cn1` [Compound 34, (S)-(5-(((5-chloropyridin-2-yl)amino)methyl)-6-azaspiro[2.5]octan-6-yl)(2-fluoro-6-(pyridin-2-yl)phenyl)methanone], the Kb was 20 nM.

With `O=C(c1ccccc1-c1cnccn1)N1CCC2(CC2)C[C@H]1CNc1ccc(Cl)cn1` [Compound 30, (S)-(5-(((5-chloropyridin-2-yl)amino)methyl)-6-azaspiro[2.5]octan-6-yl)(2-(pyrazin-2-yl)phenyl)methanone], the Kb is 63.1 nM.

For `Cc1ccc(-c2ncccn2)c(C(=O)N2CCC3(CC3)CC2CNc2ccc(Cl)cn2)c1` (racemic) [Compound 12, (±)(5-((5-chloropyridin-2-ylamino)methyl)-6-azaspiro[2.5]octan-6-yl)(5-methyl-2-(pyrimidin-2-yl)phenyl)methanone], the antagonist dissociation constant (Kb) was 50.1 nM.

As to `O=C(c1ccccc1-c1ccccc1)N1CCC2(CC2)C[C@H]1CNc1ccc(Cl)cn1` [Compound 38, (S)-[1,1′-biphenyl]-2-yl(5-(((5-chloropyridin-2-yl)amino)methyl)-6-azaspiro[2.5]octan-6-yl)methanone], the antagonist dissociation constant (Kb) was 20 nM.

Regarding `O=C(c1ccccc1-c1ncccn1)N1CCC2(CC2)C[C@H]1CNc1ccc(Cl)cn1` [Compound 40, (S)-(5-(((5-chloropyridin-2-yl)amino)methyl)-6-azaspiro[2.5]octan-6-yl)(2-(pyrimidin-2-yl)phenyl)methanone], the Kb is 31.6 nM.

As for `Cc1ccc(-n2nccn2)c(C(=O)N2CCC3(CC3)C[C@H]2CNc2cccc(Cl)n2)c1` [Compound 19, (S)-(5-(((6-chloropyridin-2-yl)amino)methyl)-6-azaspiro[2.5]octan-6-yl)(5-methyl-2-(2H-1,2,3-triazol-2-yl)phenyl)methanone], the Kb was 126 nM.

Turning to `O=C(c1ccccc1-n1nccn1)N1CCC2(CC2)C[C@H]1CNc1ccc(Cl)cn1` [Compound 28, (S)-(2-(2H-1,2,3-triazol-2-yl)phenyl)(5-(((5-chloropyridin-2-yl)amino)methyl)-6-azaspiro[2.5]octan-6-yl)methanone], the Kb was 25.1 nM.

With `Cc1nc(C(=O)N2CCC3(CC3)C[C@H]2CNc2cccc(F)n2)c(-c2ccccc2)s1` [Compound 25, (S)-(5-(((6-fluoropyridin-2-yl)amino)methyl)-6-azaspiro[2.5]octan-6-yl)(2-methyl-5-phenylthiazol-4-yl)methanone], the Kb was 39.8 nM.

With `Cc1ccnc(NC[C@@H]2CC3(CCN2C(=O)c2nc(C)sc2-c2ccccc2)CC3)n1` [Compound 21, (S)-(2-methyl-5-phenylthiazol-4-yl)(5-(((4-methylpyrimidin-2-yl)amino)methyl)-6-azaspiro[2.5]octan-6-yl)methanone], the antagonist equilibrium constant (Kb) is 126 nM.

`O=C(c1cc(F)ccc1-c1ncccn1)N1CCC2(CC2)C[C@H]1CNc1ccc(Cl)cn1` [Compound 44, (S)-(5-(((5-chloropyridin-2-yl)amino)methyl)-6-azaspiro[2.5]octan-6-yl)(5-fluoro-2-(pyrimidin-2-yl)phenyl)methanone]: the Kb is 15.8 nM.

For the compound `Cc1ccc(-c2ccccn2)c(C(=O)N2CCC3(CC3)C[C@H]2CNc2ccc(Cl)cn2)c1` [Compound 33, (S)-(5-(((5-chloropyridin-2-yl)amino)methyl)-6-azaspiro[2.5]octan-6-yl)(5-methyl-2-(pyridin-2-yl)phenyl)methanone], the Kb is 1.58 nM.

As for `O=C(c1cc(F)ccc1-c1ccccn1)N1CCC2(CC2)C[C@H]1CNc1ccc(Cl)cn1` [Compound 32, (S)-(5-(((5-chloropyridin-2-yl)amino)methyl)-6-azaspiro[2.5]octan-6-yl)(5-fluoro-2-(pyridin-2-yl)phenyl)methanone], the Kb was 63.1 nM.

As to `Cc1cccc(NCC2CC3(CCCC3)CCN2C(=O)c2nc(C)sc2-c2ccccc2)n1` (racemic) [Compound 54, (±)(2-methyl-5-phenylthiazol-4-yl)(7-(((6-methylpyridin-2-4amino)methyl)-8-azaspiro[4.5]decan-8-yl)methanone], the Kb was 63.1 nM.

Regarding `Cc1ccc(-c2cnccn2)c(C(=O)N2CCC3(CC3)C[C@H]2CNc2cccc(C(F)(F)F)n2)c1` [Compound 43, (S)-(5-methyl-2-(pyrazin-2-yl)phenyl)(5-(((6-(trifluoromethyl)pyridin-2-yl)amino)methyl)-6-azaspiro[2.5]octan-6-yl)methanone], the antagonist dissociation constant (Kb) is 10 nM.

`Cc1ccc(-c2cnccn2)c(C(=O)N2CCC3(CC3)C[C@H]2CNc2cccc(Cl)n2)c1` [Compound 42, (S)-(5-(((6-chloropyridin-2-yl)amino)methyl)-6-azaspiro[2.5]octan-6-yl)(5-methyl-2-(pyrazin-2-yl)phenyl)methanone]: the Kb is 25.1 nM.

These data come from patent publication US8859608B2, “Spiro amino compounds suitable for the treatment of inter alia sleep disorders and drug addiction” (Rottapharm Biotech S.R.L., priority 2009, dated 2014).
